Test results as given in patent publication US9944598B2, “Mono- or di-substituted indole derivatives as dengue viral replication inhibitors” (priority 2014, dated 2018).

What was measured:
[1] = tested on: Vero cells; test: in vitro; format: cell-based; details: African green monkey
Protocol: In parallel, the toxicity of the compounds was assessed on the same plates. Once the read-out for the eGFP signal was done, 10 μL of resazurin, a cell viability stain, was added to all wells of the 384-well plates. The resazurin assay is based on the reduction of the blue resazurin by NADH, produced by the cells, into the highly fluorescent product, resorufin. The formation of pink fluorescent resorufin is directly related to the number of viable cells in the well. The plates were incubated for an additional 5 hours in a fully humidified incubator (37° C., 5% CO2). Next, the plates were measured on an Infinite reader (Tecan) using an excitation wavelength of 530 nm. The half maximal cytotoxic concentration (CC50) was also determined, defined as the concentration required to reduce the resazurin conversion by 50% compared to that of the cell control wells (Table 1). Finally, the selectivity index (SI) is determined for the compounds, which is calculated as followed: SI=CC50/EC50.

[2] = Chiral stability at pH 7.4 (enantiomeric excess by Chiral SFC); format: physicochemical
Protocol: The chiral stability of Enantiomer 1A (R=OMe) was evaluated by determination of the enantiomeric excess (ee %) after incubation for 24 h and 48 h in a buffered solution at pH 7.4 at 40° C. and 60° C. To assess the influence of the methoxy-substituent of Enantiomer 1A (R=OMe) on the stability against racemization, the chiral stability of Enantiomer 1′A (R═H) was tested under the same conditions.
To this end, 5 μM buffered (pH=7.4) solutions of 1A and 1′A were prepared by mixing 25 μL of a 100 μM solution of 1A or 1′A in DMSO with 475 μL aqueous buffer pH 7.4. Samples were taken 24 h and 48 h after incubation at 40° C. and 60° C. The analytical samples were analyzed by Chiral SFC (MS detection) and the chiral purity was expressed as the enantiomeric excess (ee %=% enantiomer A−% enantiomer B).

Row | Compound | CC50 [1] [µM] | ee % ([2]; 5 μM buffered solution pH 7.4, 40° C., 24 h) [%] | ee % ([2]; 5 μM buffered solution pH 7.4, 40° C., 48 h) [%] | ee % ([2]; 5 μM buffered solution pH 7.4, 60° C., 24 h) [%] | ee % ([2]; 5 μM buffered solution pH 7.4, 60° C., 48 h) [%]
1 | COc1cc(NC(C(=O)c2c[nH]c3cc(F)c(F)cc23)c2ccc(Cl)cc2OC)cc(OCCO)c1 (single isomer, unassigned) [Compound 9A, 2-(4-chloro-2-methoxyphenyl)-1-(5,6-difluoro-1H-indol-3-yl)-2-((3-(2-hydroxyethoxy)-5-methoxyphenyl)amino)ethanone] | 6.5 | – | – | – | –
2 | COc1cc(NC(C(=O)c2c[nH]c3cc(F)ccc23)c2ccc(Cl)cc2OC)cc(OCCO)c1 (single isomer, unassigned) [Compound 1A, 2-(4-chloro-2-methoxyphenyl)-1-(6-fluoro-1H-indol-3-yl)-2-((3-(2-hydroxyethoxy)-5-methoxyphenyl)amino)ethanone] | – | 100 | 100 | 99 | 96
3 | COc1cc(NC(C(=O)c2c[nH]c3c(F)c(F)ccc23)c2ccc(Cl)cc2OC)cc(OCCO)c1 (single isomer, unassigned) [Compound 11B, 2-(4-chloro-2-methoxyphenyl)-1-(6,7-difluoro-1H-indol-3-yl)-2-((3-(2-hydroxyethoxy)-5-methoxyphenyl)amino)ethanone] | 4.1 | – | – | – | –
